From PubChem BioAssay AID220 (DTP/NCI, 2004)
Where “and” joins values, the source holds several entries; their conditions need not be identical. Identical values can stand only once. Results filed as inconclusive are left out.

System: CD8F1 mice, subcutaneous mammary adenocarcinoma, T/C%
Experiment: NCI In Vivo Anticancer Drug Screen. Data for tumor model Mammary Adenocarcinoma CD8F1 (subcutaneous) in CD8F1
Conditions: higher = larger tumour
How it was run: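 Antitumor activity is assessed in transplantable-tumor mice by comparing the treated group with a vehicle-treated control group. Survival or tumor size serves as the measure, reported as T divided by C.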

[1] = endpoint: median tumor weight (est.), dose: 25.0 mg/kg/injection, schedule: Q07DX005 (ip), vehicle: Klucel (hydroxypropylcellulose) (HPC)
[2] = endpoint: median tumor weight (est.), dose: 100.0 mg/kg/injection, schedule: Q07DX005 (ip), vehicle: Klucel (hydroxypropylcellulose) (HPC)
[3] = endpoint: median tumor weight change, dose: 31.0 mg/kg/injection, schedule: Q01DX001 (ip), vehicle: saline with Tween-80
[4] = endpoint: median tumor weight change, dose: 62.0 mg/kg/injection, schedule: Q01DX001 (ip), vehicle: saline with Tween-80
[5] = endpoint: median tumor weight change, dose: 125.0 mg/kg/injection, schedule: Q01DX001 (ip), vehicle: saline with Tween-80

With `O=C(O)CSc1nc(-c2ccccc2)c(-c2ccccc2)n1-c1ccccn1` the T/C (endpoint: median tumor weight (est.), dose: 12.5 mg/kg/injection, schedule: Q07DX005 (ip), vehicle: water) was 63 % of control and 72 % of control, the T/C (endpoint: median tumor weight (est.), dose: 25.0 mg/kg/injection, schedule: Q07DX005 (ip), vehicle: water) was 217 % of control and 78 % of control and the T/C (endpoint: median tumor weight (est.), dose: 200.0 mg/kg/injection, schedule: Q07DX005 (ip), vehicle: water) was 64 % of control.

In the case of `CCCCCC#CC1OC12CCCCC2` (configuration not stated), the T/C (endpoint: median tumor weight change, dose: 100.0 mg/kg/injection, schedule: Q01DX001 (ip), vehicle: saline with Tween-80) is reported as 37 % of control, the T/C (endpoint: median tumor weight change, dose: 200.0 mg/kg/injection, schedule: Q01DX001 (ip), vehicle: saline with Tween-80) is reported as 106 % of control and the T/C (endpoint: median tumor weight change, dose: 400.0 mg/kg/injection, schedule: Q01DX001 (ip), vehicle: saline with Tween-80) is reported as 51 % of control. For the same compound, the T/C (endpoint: median tumor weight change, dose: 800.0 mg/kg/injection, schedule: Q01DX001 (ip), vehicle: saline with Tween-80) was 100 % of control.

In the case of `OC(CBr)C(O)C(O)C(O)CBr` (configuration not stated), the T/C (endpoint: mean tumor weight, dose: 100.0 mg/kg/injection, schedule: Q01DX009 (ip), vehicle: saline) is reported as 164 % of control, the T/C (endpoint: mean tumor weight, dose: 150.0 mg/kg/injection, schedule: Q01DX009 (ip), vehicle: saline) is reported as 89 % of control and the T/C (endpoint: mean tumor weight, dose: 200.0 mg/kg/injection, schedule: Q01DX009 (ip), vehicle: saline) is reported as 69 % of control. The T/C (endpoint: mean tumor weight, dose: 300.0 mg/kg/injection, schedule: Q01DX009 (ip), vehicle: saline) was 49 % of control, the T/C (endpoint: mean tumor weight, dose: 400.0 mg/kg/injection, schedule: Q01DX009 (ip), vehicle: saline) was 53 % of control and the T/C (endpoint: mean tumor weight, dose: 500.0 mg/kg/injection, schedule: Q01DX009 (ip), vehicle: saline) was 38 % of control. The T/C [1] was 49 % of control, the T/C (endpoint: median tumor weight (est.), dose: 25.0 mg/kg/injection, schedule: Q07DX005 (ip), vehicle: saline) was 84 % of control and the T/C (endpoint: median tumor weight (est.), dose: 50.0 mg/kg/injection, schedule: Q07DX005 (ip), vehicle: saline) was 32 % of control. The T/C [2] was 31 % of control, the T/C (endpoint: median tumor weight (est.), dose: 100.0 mg/kg/injection, schedule: Q07DX005 (ip), vehicle: saline) was 41 % of control and the T/C (endpoint: median tumor weight (est.), dose: 200.0 mg/kg/injection, schedule: Q07DX005 (ip), vehicle: Klucel (hydroxypropylcellulose) (HPC)) was 2 % of control. For the same compound, the T/C (endpoint: median tumor weight (est.), dose: 200.0 mg/kg/injection, schedule: Q07DX005 (ip), vehicle: saline) was 28 % of control, the T/C (endpoint: median tumor weight (est.), dose: 400.0 mg/kg/injection, schedule: Q07DX005 (ip), vehicle: saline) was 7 % of control and the T/C (endpoint: median tumor weight (est.), dose: 1200.0 mg/kg/injection, schedule: Q07DX005 (ip), vehicle: Klucel (hydroxypropylcellulose) (HPC)) was 13 % of control. The T/C (endpoint: median tumor weight change, dose: 150.0 mg/kg/injection, schedule: Q01DX001 (ip), vehicle: Klucel (hydroxypropylcellulose) (HPC)) was 95 % of control, the T/C (endpoint: median tumor weight change, dose: 300.0 mg/kg/injection, schedule: Q01DX001 (ip), vehicle: Klucel (hydroxypropylcellulose) (HPC)) was 39 % of control and the T/C (endpoint: median tumor weight change, dose: 600.0 mg/kg/injection, schedule: Q01DX001 (ip), vehicle: Klucel (hydroxypropylcellulose) (HPC)) was 51 % of control.

With `O=C1C(O)=C(c2ccccc2)C(=O)C(O)=C1c1ccccc1` the T/C [3] was 105 % of control, the T/C [4] was 58 % of control and the T/C [5] was 104 % of control.

`Clc1ccc(C(c2ccccc2Cl)C(Cl)Cl)cc1` (configuration not stated) was tested, and the T/C (endpoint: median tumor weight (est.), dose: 12.5 mg/kg/injection, schedule: Q07DX005 (ip), vehicle: Klucel (hydroxypropylcellulose) (HPC)) was 124 % of control, the T/C [1] was 118 % of control and the T/C (endpoint: median tumor weight (est.), dose: 50.0 mg/kg/injection, schedule: Q07DX005 (ip), vehicle: Klucel (hydroxypropylcellulose) (HPC)) was 175 % of control. For the same compound, the T/C [2] was 92 % of control.

For `CCCC(=O)O`, the T/C (endpoint: median tumor weight change, dose: 7.81 mg/kg/injection, schedule: Q01DX001 (ip), vehicle: saline) was 88 % of control, the T/C (endpoint: median tumor weight change, dose: 15.62 mg/kg/injection, schedule: Q01DX001 (ip), vehicle: saline) was 166 % of control and the T/C (endpoint: median tumor weight change, dose: 31.25 mg/kg/injection, schedule: Q01DX001 (ip), vehicle: saline) was 97 % of control. For the same compound, the T/C (endpoint: median tumor weight change, dose: 62.5 mg/kg/injection, schedule: Q01DX001 (ip), vehicle: saline) was 80 % of control and the T/C (endpoint: median tumor weight change, dose: 125.0 mg/kg/injection, schedule: Q01DX001 (ip), vehicle: saline) was 71 % of control.

In the case of `C=C(C)[C@@H]1CCc2c(O)c(O)c(=O)cc(C)c2C1`, the T/C [3] is reported as 83 % of control, the T/C [4] is reported as 57 % of control and the T/C [5] is reported as 88 % of control. For the same compound, the T/C (endpoint: median tumor weight change, dose: 250.0 mg/kg/injection, schedule: Q01DX001 (ip), vehicle: saline with Tween-80) was 57 % of control and the T/C (endpoint: median tumor weight change, dose: 500.0 mg/kg/injection, schedule: Q01DX001 (ip), vehicle: saline with Tween-80) was 93 % of control.
